Assay results reported in ChEMBL document CHEMBL1126863 (J Med Chem, 1993).
Each block holds one compound with its values, some of them ahead of it. Square brackets hold non-standard residues; d marks the D form. Peptide text beside a SMILES is read from it. pGlu = O=C1CC[C@@H](C(=O)O)N1

Assays:
Substance-P receptor [1] = molecular target: T1, Substance-P receptor (Cavia porcellus, UniProt P30547); assay: Evaluated for the binding affinity towards NK1 receptor in the striatal membranes of guinea pig; assay type: cell membranes, Striatum, Membrane
Substance-P receptor [2] = molecular target: T1, Substance-P receptor; assay: Evaluated for the binding affinity against NK1 receptor
[3] = molecular target: Substance-P receptor (Cavia porcellus) (UniProt P30547); settings: Striatum, Membrane, 10 uM
Target sequence in this assay (P30547 whole entry): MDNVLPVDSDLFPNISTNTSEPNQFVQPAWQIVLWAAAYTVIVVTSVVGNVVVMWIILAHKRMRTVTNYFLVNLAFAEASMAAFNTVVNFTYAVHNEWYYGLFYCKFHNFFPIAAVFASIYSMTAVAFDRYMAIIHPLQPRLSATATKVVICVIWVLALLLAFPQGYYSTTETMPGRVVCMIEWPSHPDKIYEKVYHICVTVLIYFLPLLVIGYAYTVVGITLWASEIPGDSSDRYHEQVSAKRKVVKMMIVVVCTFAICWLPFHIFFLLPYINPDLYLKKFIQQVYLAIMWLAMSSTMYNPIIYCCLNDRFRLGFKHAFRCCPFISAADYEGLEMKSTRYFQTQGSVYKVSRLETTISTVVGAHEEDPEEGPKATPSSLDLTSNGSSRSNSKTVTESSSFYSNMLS
Description: Evaluated for the binding affinity towards NK1 receptor in the striatal membranes of guinea pig at 10 uM

[4] = molecular target: Substance-P receptor (Cavia porcellus) (UniProt P30547); assay: Evaluated for the binding affinity against NK1 receptor at 1 uM
Target sequence in this assay (P30547 whole entry, looked up): as the sequence (P30547 whole entry) above

[5] = molecular target: Substance-P receptor (Cavia porcellus) (UniProt P30547); assay: Evaluated for the binding affinity against NK1 receptor
Target sequence in this assay (P30547 whole entry, looked up): as the sequence (P30547 whole entry) above

T1 sequence (P30547 whole entry): as above

Compound: [3H]c1cc([3H])cc([C@@H]2NCCC[C@@H]2NCc2ccccc2OC)c1
Kd (Substance-P receptor [1]): 0.32 nM

Compound: CC(C)C[C@H](NC(=O)CN(C)C(=O)[C@H](Cc1ccccc1)NC(=O)[C@H](Cc1ccccc1)NC(=O)[C@H](CCC(N)=O)NC(=O)[C@H](CCC(N)=O)NC(=O)[C@@H]1CCCN1C(=O)[C@H](CCCCN)NC(=O)[C@@H]1CCCN1C(=O)[C@@H](N)CCCNC(=N)N)C(=O)N[C@@H](CCS(C)(=O)=O)C(N)=O
Ki (Substance-P receptor [2]): 20 nM

Compound: COc1ccccc1CN[C@@H]1CCCN[C@@H]1c1ccccc1
inhibition [3]: 50%

Compound: CC[C@H](C)[C@H](NC(=O)[C@H](Cc1ccccc1)NC(=O)[C@H](C)NC(=O)[C@H](CC(=O)O)NC(=O)[C@H](CCCCN)NC(=O)[C@H](CO)NC(=O)[C@@H]1CCCN1C(=O)[C@@H]1CCC(=O)N1)C(=O)NCC(=O)N[C@@H](CC(C)C)C(=O)N[C@@H](CCSC)C(N)=O ([pGlu]PSKDAFIGLM-NH2)
inhibition [4]: 15%

Compound: CSCC[C@H](NC(=O)[C@H](CC(C)C)NC(=O)CNC(=O)[C@@H](NC(=O)[C@H](Cc1ccccc1)NC(=O)[C@H](CO)NC(=O)[C@H](CC(=O)O)NC(=O)[C@@H](NC(=O)[C@H](CCCCN)NC(=O)[C@@H](N)Cc1cnc[nH]1)[C@@H](C)O)C(C)C)C(N)=O [NEUROKININ A]
Ki [5]: 3700 nM

The remaining lines, values ahead:

Ki (Substance-P receptor [1]): 0.17 nM
Compound: COc1ccccc1CN[C@H]1CCCN[C@H]1c1ccccc1 (stereo in doubt; 5) [CP-99994]

Ki (Substance-P receptor [1]): 0.27 nM
Compound: COc1ccccc1CN[C@H]1CCCN[C@H]1c1ccccc1 (stereo in doubt; 6b) [CP-99994]
